What is called IC50 is the concentration that gives 50% inhibition. What is called EC50 is the concentration at which the effect is half-maximal. Read a high EC50 as a less potent agent. The clearance is the rate of elimination divided by the concentration. Read a low clearance as inefficient removal. The term inhibition denotes the relative decrease from the control value, in per cent. A word on the Kd: it is the equilibrium constant for the complex coming apart. Lower therefore signals a tighter complex.

Bounds are passed on as bounds.

For series [1], the target named is Cyclin-dependent kinase 8 (Homo sapiens, UniProt P49336). Description: Competitive reversible inhibition of CDK8 (unknown origin).
For series [2], the target named is Cyclin-dependent kinase 4 (Homo sapiens, UniProt P11802). Description: Competitive reversible inhibition of CDK4 (unknown origin).
The target in series [3] is Cyclin-dependent kinase 6 (Homo sapiens, UniProt Q00534). Description: Competitive reversible inhibition of CDK6 (unknown origin).
The test system of another series is HCT-116. Description: Anti-tumor activity in human HCT116 cells xenografted in in vivo animal model assessed tumor growth inhibition at 100 mg/kg, qd after 13 days relative to control. To be noted: HCT-116, 312 h, read-out: TGI. The series is classed as functional. Background: A xenograft is tissue or cells of one species grown in another, often human tumour cells in immunodeficient mice.

Series [4] has as its target Cyclin-dependent kinase 5 (Homo sapiens, UniProt Q00535). Description: Competitive reversible inhibition of CDK5 (unknown origin).
The target of series [5] is T1, CDK7/Cyclin H/MNAT1 (Homo sapiens, UniProt P50613). Description: Competitive irreversible inhibition of CDK7/cyclinH/MAT1 (unknown origin) using 5-FAM YSPTSPSYSPTSPSYSPTSPSKKKK as substrate. In kind it is protein-complex assay.
For series [6], the target named is T2, CDK7/Cyclin H/MNAT1 (Homo sapiens) (UniProt P51946+P50613+P51948). Description: Ratio of Ki CDK7/cyclinH/MAT1 (unknown origin) to Kinact CDK7/cyclinH/MAT1 (unknown origin) assessed as inactivation constant. The series is classed as protein-complex assay.
Series [7] concerns the target T1, CDK7/Cyclin H/MNAT1. Description: Competitive irreversible inhibition of CDK7/cyclinH/MAT1 (unknown origin). In kind it is protein-complex assay.
The target in series [8] is T1, CDK7/Cyclin H/MNAT1. Description: Competitive irreversible inhibition of CDK7/cyclinH/MAT1 (unknown origin) using 5-FAM YSPTSPSYSPTSPSYSPTSPSKKKK as substrate in presence of Km ATP. In kind it is protein-complex assay.
For series [9], the target named is T1, CDK7/Cyclin H/MNAT1. Description: Competitive irreversible inhibition of CDK7/cyclinH/MAT1 (unknown origin) using 5-FAM YSPTSPSYSPTSPSYSPTSPSKKKK as substrate in presence of 2 mM ATP. The series is classed as protein-complex assay.
The target in series [10] is T3, CDK9/cyclin T1 (Homo sapiens, UniProt P50750). Description: Competitive irreversible inhibition of CDK9/cyclin T (unknown origin) in presence of Km ATP. The series is classed as protein-complex assay.
In a further series the test system is HL-60. Description: Antiproliferative activity against human HL60 cells after 72 hrs by CellTiter-Glo assay. In kind it is functional, cell-based. The following applies: HL-60, 72 h. For orientation: ATP-based viability assays read luminescence as a measure of living cells.
Series [11] can be described thus: Clearance in mouse. In kind it is ADME, organism-based. To be noted: in vivo.
For series [12], the target named is T2, CDK7/Cyclin H/MNAT1 (Homo sapiens). Description: Competitive irreversible inhibition of CDK7/cyclinH/MAT1 (unknown origin) assessed as inactivation constant using 5-FAM YSPTSPSYSPTSPSYSPTSPSKKKK as substrate. The series is classed as protein-complex assay.
For series [13], the target named is Cyclin-dependent kinase 1 (Homo sapiens) (UniProt P06493). Description: Inhibition of CDK1 (unknown origin) relative to control. To be noted: concentration not given here.
In series [14] the target is T4, Cyclin-dependent kinase 2 (Homo sapiens, UniProt P24941). Description: Inhibition of CDK2 (unknown origin) relative to control. To be noted: concentration not given here.
The target in series [15] is T4, Cyclin-dependent kinase 2. Description: Binding affinity to CDK2 (unknown origin) assessed as association rate constant.
Series [16] concerns the target T4, Cyclin-dependent kinase 2. Description: Binding affinity to CDK2 (unknown origin) assessed as inactivation constant.
Series [17] has as its target T4, Cyclin-dependent kinase 2. Description: Binding affinity to CDK2 (unknown origin) assessed as dissociation rate constant.
In series [18] the target is T5, CDK12/Cyclin K (Homo sapiens, UniProt Q9NYV4). Description: Competitive irreversible inhibition of CDK12/cyclinK (unknown origin) in presence of Km ATP. The series is classed as protein-complex assay.
The target in series [19] is Cyclin-dependent kinase 13/Cyclin-K (Homo sapiens, UniProt Q14004).
In series [20] the target is T5, CDK12/Cyclin K.
Series [21] concerns the target T3, CDK9/cyclin T1. Description: Competitive irreversible inhibition of CDK9/cyclin T (unknown origin). In kind it is protein-complex assay.
The target of series [22] is T6, Cyclin-dependent kinase 2/cyclin E1 (Homo sapiens, UniProt P24941). Description: Competitive irreversible inhibition of CDK2/cyclin E (unknown origin). In kind it is protein-complex assay.
Series [23] deals with T6, Cyclin-dependent kinase 2/cyclin E1. Description: Competitive reversible inhibition of CDK2/cyclin E (unknown origin). The series is classed as protein-complex assay.
Series [24] concerns the target NUAK family SNF1-like kinase 2 (Homo sapiens, UniProt Q9H093). Description: Binding affinity to SNARK (unknown origin).
Another series addresses CDK9/Cyclin-H (Homo sapiens, UniProt P50750+P51946). Description: Inhibition of CDK9/cyclin H (unknown origin). In kind it is protein-complex assay.
Series [25] concerns the target T6, Cyclin-dependent kinase 2/cyclin E1. Description: Inhibition of human CDK2/cyclin E. The series is classed as protein-complex assay.
The target in series [26] is Serine/threonine-protein kinase Nek10 (Homo sapiens, UniProt Q6ZWH5). Description: Binding affinity to NEK10 (unknown origin).
Series [27] deals with Receptor-type tyrosine-protein kinase FLT3 (Homo sapiens, UniProt P36888, D835V). Description: Binding affinity to human FLT3 D835V mutant.
Series [28] concerns the target Cyclin-dependent kinase 4/cyclin D1 (Homo sapiens, UniProt P11802). Description: Inhibition of human CDK4/cyclinD1. The series is classed as protein-complex assay.
Series [29] deals with Receptor-type tyrosine-protein kinase FLT3 (Homo sapiens, UniProt P36888, ITD). Description: Binding affinity to human FLT3 ITD mutant.
Series [30] addresses Cyclin-dependent kinase 14/Cyclin-Y (Homo sapiens, UniProt O94921+Q8ND76). Description: Competitive irreversible inhibition of CDK14/cyclin Y (unknown origin) in presence of Km ATP. In kind it is protein-complex assay.
The next series relates to Hs 683. Description: Antiproliferative activity against human Hs683 cells. The series is classed as functional, cell-based.
A further series relates to OVCAR-3. Description: Antiproliferative activity against human OVCAR3 cells. In kind it is functional, cell-based.
The test system of a further series is MCF7. Description: Antiproliferative activity against human MCF7 cells. In kind it is functional, cell-based.
For series [31], the target named is T4, Cyclin-dependent kinase 2. Description: Inhibition of CDK2 (unknown origin).
A short description of series [32]: Antiproliferative activity against imatinib-resistant human K562R-2 cells. The series is classed as functional.
A further series has as its system K562. Description: Antiproliferative activity against wild type human K562 cells. In kind it is functional, cell-based.
Series [33] is described as follows: Antiproliferative activity against imatinib-resistant human K562R-1 cells. The series is classed as functional.
Series [34] concerns the target T1, CDK7/Cyclin H/MNAT1. Description: Competitive irreversible inhibition of CDK7/cyclinH/MAT1 (unknown origin) in presence of 1 mM ATP. In kind it is protein-complex assay.

T5 sequence (O75909 whole entry): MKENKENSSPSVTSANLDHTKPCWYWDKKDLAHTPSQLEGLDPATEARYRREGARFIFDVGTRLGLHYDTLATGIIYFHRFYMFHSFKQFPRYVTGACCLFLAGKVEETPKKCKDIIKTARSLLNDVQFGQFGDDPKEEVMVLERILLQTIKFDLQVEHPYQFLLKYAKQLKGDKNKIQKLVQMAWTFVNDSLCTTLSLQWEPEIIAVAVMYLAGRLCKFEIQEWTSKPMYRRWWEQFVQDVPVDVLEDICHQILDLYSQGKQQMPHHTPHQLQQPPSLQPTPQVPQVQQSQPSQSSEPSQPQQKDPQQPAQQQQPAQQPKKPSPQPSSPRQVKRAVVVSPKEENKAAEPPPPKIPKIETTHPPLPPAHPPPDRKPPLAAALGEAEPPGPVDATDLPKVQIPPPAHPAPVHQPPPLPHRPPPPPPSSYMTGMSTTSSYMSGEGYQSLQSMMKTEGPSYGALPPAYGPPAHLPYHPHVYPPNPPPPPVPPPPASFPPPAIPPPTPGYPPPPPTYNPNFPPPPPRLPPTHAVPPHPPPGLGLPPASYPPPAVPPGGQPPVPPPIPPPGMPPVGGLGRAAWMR
T5 sequence (Q9NYV4 whole entry): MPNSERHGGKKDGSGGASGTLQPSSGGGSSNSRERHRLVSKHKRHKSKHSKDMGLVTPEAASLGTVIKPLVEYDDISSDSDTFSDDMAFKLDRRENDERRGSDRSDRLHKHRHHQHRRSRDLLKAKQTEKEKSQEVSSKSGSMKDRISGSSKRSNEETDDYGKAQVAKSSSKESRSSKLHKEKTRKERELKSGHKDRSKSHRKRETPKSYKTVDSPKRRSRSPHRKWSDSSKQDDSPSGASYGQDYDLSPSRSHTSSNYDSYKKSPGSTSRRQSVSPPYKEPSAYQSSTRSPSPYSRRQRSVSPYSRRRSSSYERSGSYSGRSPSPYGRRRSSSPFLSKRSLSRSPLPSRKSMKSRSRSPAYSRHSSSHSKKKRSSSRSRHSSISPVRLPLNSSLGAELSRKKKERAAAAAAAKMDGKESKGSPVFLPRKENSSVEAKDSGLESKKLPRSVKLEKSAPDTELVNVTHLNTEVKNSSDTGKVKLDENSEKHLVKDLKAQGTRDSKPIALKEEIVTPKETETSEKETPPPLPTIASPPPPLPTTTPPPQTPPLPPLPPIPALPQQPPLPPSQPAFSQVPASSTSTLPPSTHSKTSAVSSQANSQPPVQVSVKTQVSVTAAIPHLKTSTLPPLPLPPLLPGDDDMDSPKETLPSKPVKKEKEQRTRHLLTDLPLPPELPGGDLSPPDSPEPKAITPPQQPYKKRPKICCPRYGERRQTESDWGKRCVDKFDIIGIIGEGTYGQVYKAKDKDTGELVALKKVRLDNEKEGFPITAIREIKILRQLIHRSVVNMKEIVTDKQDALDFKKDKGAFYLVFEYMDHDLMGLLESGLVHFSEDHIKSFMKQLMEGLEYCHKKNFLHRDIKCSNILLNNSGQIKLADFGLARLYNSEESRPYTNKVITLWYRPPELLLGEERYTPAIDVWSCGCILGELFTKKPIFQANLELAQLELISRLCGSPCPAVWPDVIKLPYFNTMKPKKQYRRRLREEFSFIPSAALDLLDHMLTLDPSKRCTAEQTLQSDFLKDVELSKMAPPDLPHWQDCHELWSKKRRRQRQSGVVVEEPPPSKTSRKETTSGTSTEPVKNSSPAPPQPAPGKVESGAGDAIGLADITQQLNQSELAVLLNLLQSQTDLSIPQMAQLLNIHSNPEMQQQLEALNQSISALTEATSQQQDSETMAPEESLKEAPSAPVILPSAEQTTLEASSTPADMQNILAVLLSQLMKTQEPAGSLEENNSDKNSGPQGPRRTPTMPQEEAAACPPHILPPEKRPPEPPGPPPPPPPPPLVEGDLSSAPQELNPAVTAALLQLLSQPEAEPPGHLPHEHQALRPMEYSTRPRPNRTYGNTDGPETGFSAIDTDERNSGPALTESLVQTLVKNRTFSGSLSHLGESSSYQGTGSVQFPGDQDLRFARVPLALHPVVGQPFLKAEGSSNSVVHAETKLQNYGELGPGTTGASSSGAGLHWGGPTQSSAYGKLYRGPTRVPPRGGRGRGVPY
T3 sequence (O60563 whole entry): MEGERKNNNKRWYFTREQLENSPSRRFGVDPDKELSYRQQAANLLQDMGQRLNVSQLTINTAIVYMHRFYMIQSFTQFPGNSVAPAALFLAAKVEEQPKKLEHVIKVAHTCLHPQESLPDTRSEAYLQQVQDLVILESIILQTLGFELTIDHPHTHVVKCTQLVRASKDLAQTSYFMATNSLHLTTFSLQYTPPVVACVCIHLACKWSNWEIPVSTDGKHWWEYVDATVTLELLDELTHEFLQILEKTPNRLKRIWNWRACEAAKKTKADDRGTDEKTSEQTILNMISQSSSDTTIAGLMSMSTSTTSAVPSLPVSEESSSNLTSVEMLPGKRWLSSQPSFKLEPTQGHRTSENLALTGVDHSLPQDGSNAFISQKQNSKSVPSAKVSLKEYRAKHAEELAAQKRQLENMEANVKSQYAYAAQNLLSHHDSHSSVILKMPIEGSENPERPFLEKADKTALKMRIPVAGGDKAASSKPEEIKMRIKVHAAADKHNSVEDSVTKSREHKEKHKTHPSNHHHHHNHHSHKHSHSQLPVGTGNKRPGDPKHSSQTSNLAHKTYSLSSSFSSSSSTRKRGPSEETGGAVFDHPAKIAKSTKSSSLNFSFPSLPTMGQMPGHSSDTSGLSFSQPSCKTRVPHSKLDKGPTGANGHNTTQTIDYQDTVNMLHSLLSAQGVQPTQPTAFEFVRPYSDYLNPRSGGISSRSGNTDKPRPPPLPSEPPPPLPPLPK
T3 sequence (P50750 whole entry): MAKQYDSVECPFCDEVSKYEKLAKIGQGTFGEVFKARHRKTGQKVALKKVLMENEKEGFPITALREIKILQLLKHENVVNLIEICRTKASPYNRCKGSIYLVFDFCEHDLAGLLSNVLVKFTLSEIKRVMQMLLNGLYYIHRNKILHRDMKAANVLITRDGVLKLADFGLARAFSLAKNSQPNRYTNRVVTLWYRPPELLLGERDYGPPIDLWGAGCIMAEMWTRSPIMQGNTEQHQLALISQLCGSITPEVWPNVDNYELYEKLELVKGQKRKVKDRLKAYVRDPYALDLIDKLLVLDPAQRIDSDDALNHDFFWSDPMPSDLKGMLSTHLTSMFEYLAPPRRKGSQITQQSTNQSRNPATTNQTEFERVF
T1 sequence (P51946 whole entry): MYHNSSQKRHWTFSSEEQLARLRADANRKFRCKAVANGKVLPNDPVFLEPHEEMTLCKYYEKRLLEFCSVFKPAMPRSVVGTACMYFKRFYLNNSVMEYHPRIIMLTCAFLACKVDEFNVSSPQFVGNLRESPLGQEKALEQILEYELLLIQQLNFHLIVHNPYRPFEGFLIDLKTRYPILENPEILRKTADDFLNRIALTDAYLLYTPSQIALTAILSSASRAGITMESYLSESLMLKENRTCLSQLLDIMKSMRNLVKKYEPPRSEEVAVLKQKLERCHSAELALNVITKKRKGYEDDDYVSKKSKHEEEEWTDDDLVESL
T1 sequence (P50613 whole entry): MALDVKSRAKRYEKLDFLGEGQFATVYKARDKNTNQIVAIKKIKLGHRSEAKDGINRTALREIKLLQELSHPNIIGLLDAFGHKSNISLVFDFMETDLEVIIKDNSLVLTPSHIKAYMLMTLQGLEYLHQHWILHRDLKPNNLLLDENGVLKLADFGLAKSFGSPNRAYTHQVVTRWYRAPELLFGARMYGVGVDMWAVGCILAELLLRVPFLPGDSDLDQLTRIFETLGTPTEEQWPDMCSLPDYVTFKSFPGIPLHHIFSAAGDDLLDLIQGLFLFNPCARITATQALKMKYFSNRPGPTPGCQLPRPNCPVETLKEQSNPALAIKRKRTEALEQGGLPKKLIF
T1 sequence (P51948 whole entry, further chain): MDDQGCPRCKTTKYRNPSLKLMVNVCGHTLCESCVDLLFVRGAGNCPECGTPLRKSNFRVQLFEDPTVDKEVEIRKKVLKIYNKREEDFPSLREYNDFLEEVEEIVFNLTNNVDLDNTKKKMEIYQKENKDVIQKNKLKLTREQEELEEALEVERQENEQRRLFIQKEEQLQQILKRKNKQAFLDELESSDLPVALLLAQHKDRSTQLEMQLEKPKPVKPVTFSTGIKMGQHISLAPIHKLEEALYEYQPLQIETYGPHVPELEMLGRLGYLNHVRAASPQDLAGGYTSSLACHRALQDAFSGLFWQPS
Chain of Cyclin-dependent kinase 5 (Q00535 whole entry): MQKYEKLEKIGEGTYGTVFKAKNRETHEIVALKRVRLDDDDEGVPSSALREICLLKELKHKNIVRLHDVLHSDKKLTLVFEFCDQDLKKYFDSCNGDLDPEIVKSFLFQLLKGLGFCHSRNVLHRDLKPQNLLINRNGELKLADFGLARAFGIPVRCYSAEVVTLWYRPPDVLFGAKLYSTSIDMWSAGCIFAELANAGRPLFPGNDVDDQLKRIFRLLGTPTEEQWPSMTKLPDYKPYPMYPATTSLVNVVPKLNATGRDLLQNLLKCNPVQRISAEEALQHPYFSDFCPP
Chain of Cyclin-dependent kinase 8 (P49336 whole entry): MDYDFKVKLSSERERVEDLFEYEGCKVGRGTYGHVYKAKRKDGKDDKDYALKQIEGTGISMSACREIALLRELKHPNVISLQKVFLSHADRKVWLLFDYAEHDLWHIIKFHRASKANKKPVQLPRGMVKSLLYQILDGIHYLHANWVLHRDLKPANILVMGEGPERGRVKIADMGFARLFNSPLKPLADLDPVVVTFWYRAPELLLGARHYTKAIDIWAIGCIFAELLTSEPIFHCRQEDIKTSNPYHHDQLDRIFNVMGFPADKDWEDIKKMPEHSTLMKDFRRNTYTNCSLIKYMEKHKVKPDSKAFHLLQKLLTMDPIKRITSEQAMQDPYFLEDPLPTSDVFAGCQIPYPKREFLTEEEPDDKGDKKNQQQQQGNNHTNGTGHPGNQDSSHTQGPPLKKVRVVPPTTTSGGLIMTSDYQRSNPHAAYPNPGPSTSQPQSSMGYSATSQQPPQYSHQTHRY
Chain of CDK9/Cyclin-H (P51946 whole entry): as the sequence (P51946 whole entry) above
Chain of CDK9/Cyclin-H (P50750 whole entry): as the sequence (P50750 whole entry) above

Regarding `CC(C)c1cnn2c(NCc3ccccc3)cc(NC[C@H]3CCNC[C@@H]3O)nc12` [CT-7001], the IC50 in series [1] turned out to be 1200 nM; in [2], 49000 nM; in series [3] it was 34000 nM; in series [4] it was 9400 nM. Also, the inhibition in vivo at 100 mg/kg with HCT-116 was found to be 60%.
At CDK7/Cyclin H/MNAT1 [5], `CN(C)C/C=C/C(=O)Nc1ccc(C(=O)N[C@H]2CCC[C@@H](Nc3ncc(Cl)c(-c4c[nH]c5ccccc45)n3)C2)nc1` displayed a Ki of 62.5 nM. Moreover, in [6], the Ratio turned out to be 0.05 µM⁻¹ s⁻¹. Further, the EC50 on CDK7/Cyclin H/MNAT1 [7] is 4 nM; with HL-60, 3 nM. The IC50 at CDK7/Cyclin H/MNAT1 [8] turned out to be 23 nM; at CDK7/Cyclin H/MNAT1 [9], 205 nM; at CDK9/cyclin T1 [10], 226 nM. The compound also had a clearance in [11] of 29 mL/min/kg. Moreover, in series [12], the Kinact was 11.3 h⁻¹.
As for `C=CC(=O)N1CCN(C(=O)OC(C)(C)C)c2ccccc21`, the inhibition in series [13] turned out to be 2%; in [14] it was 83%.
As for `C=CS(=O)(=O)c1ccc(Nc2nc(OCC3CCCCC3)c3nc[nH]c3n2)cc1`, the K in series [15] was 0.55 ×10⁶ /M/s; in series [17], 0.07 s⁻¹. The Kinact in series [16] is 5 ×10³ /M/s.
At CDK7/Cyclin H/MNAT1 [5], `CN(C)C/C=C/C(=O)Nc1ccc(C(=O)N[C@H]2CCC[C@@H](Nc3ncc(Cl)c(-c4c[nH]c5ccccc45)n3)C2)cc1` had a Ki of 105 nM. For the same compound, the IC50 on CDK12/Cyclin K [18] stood at 312 nM; at CDK7/Cyclin H/MNAT1 [8] it was 112 nM; on CDK7/Cyclin H/MNAT1 [9], 908 nM; at CDK9/cyclin T1 [10] it was 627 nM. Also, the Ratio in series [6] stood at 0.013 µM⁻¹ s⁻¹. Further, the EC50 on CDK7/Cyclin H/MNAT1 [7] was found to be 48 nM; in the series with HL-60 it was 13 nM. This compound also came in with a clearance in [11] of 17 mL/min/kg. Also, the Kinact in series [12] worked out at 4.8 h⁻¹.
Regarding `CN(C)C/C=C/C(=O)Nc1ccc(C(=O)Nc2cccc(Nc3ncc(Cl)c(-c4c[nH]c5ccccc45)n3)c2)cc1`, the IC50 was 371 nM at CDK12/Cyclin K [18], 628 nM in series [19] and 893 nM on CDK12/Cyclin K [20]. Moreover, the midpoint of the response in the series with HL-60, the EC50, lay at 38 nM. In series [11], this compound displayed a clearance of 129 mL/min/kg.
Take `C=CC(=O)Nc1cccc(Nc2cc(N3CCCC[C@H]3CCO)nc3c(CC)cnn23)c1`: the IC50 at CDK9/cyclin T1 [21] was found to be 20 nM; in series [22] it was 932 nM.
For `CC(C)c1cnn2c(NCc3ccccc3)cc(NCCCCCCN)nc12`, the IC50 was 4200 nM in [1], 33000 nM in series [2], 47000 nM in [3] and 3000 nM in series [4].
At CDK7/Cyclin H/MNAT1 [5], `CN(C)C/C=C/C(=O)Nc1ccc(C(=O)N[C@@]2(C)CCC[C@@H](Nc3ncc(Cl)c(-c4c[nH]c5ccccc45)n3)C2)nc1` displayed a Ki of 17.4 nM. The IC50 at CDK12/Cyclin K [18] is 20 nM; at CDK7/Cyclin H/MNAT1 [8], 84 nM; on CDK7/Cyclin H/MNAT1 [9] it was 590 nM; on CDK9/cyclin T1 [10], 914 nM. Also, the EC50 on CDK7/Cyclin H/MNAT1 [7] was 13 nM; in the series on HL-60, 8 nM. In [11], the clearance came to 6 mL/min/kg.
In turn, `CC(C)c1cnn2c(NCc3ccccc3)cc(N[C@@H](CO)[C@H](O)CO)nc12` returned an IC50 in series [1] of 90 nM.
Take `CN(C)C/C=C/C(=O)Nc1ccc(C(=O)N2CCC[C@@H](Nc3ncc(Cl)c(-c4c[nH]c5ccccc45)n3)C2)cc1`: at CDK9/cyclin T1 [10], the IC50 was 834 nM.
On to `CC[C@H](Nc1nc(NCc2cnc(C)cc2C)c2ncn(C(C)C)c2n1)[C@@H](C)O` [CYC-065], for which the concentration for half-maximal inhibition (IC50) turned out to be 5 nM in [23] and 23 nM in series [4].
As to `CC(C)N1CCN(c2ccc(Nc3ncc4cc5n(c4n3)C3(CCCCC3)CNC5=O)nc2)CC1` [LEROCICLIB], the Kd was 0.7 nM in series [24], 0.2 nM in [26], 22 nM in series [27] and 6.5 nM in [29]. This compound gave an IC50 against CDK9/Cyclin-H of 280 nM. Besides, the EC50 in series [25] and in series [28] was less than 100 nM in each case.
`C=CC(=O)N1CCN(C(=O)OC)c2ccccc21`: the inhibition in series [13] was -2%; in series [14] it was 5%.
For the compound `CN(C)C/C=C/C(=O)Nc1cccc(S(=O)(=O)N2CCC(NC(=O)c3n[nH]cc3NC(=O)c3c(Cl)cc(Cl)cc3Cl)CC2)c1`, the IC50 in series [30] was 88 nM.
In the case of `CN1CCN(c2ccc(Nc3ncc4cc5n(c4n3)C3(CCCCC3)CNC5=O)nc2)CC1` [TRILACICLIB], in the series on Hs 683, inhibition was half-maximal at 30 nM (IC50).
`C[C@@]1(O)CCC[C@H]1n1c(=O)c(C(F)F)cc2cnc(NC3CCN(S(C)(=O)=O)CC3)nc21` [EBVACICLIB]: the IC50 in the series on OVCAR-3 and with MCF7 was 48 nM throughout.
Regarding `O=C1Nc2ccc([N+](=O)[O-])cc2/C1=C1/Nc2ccc(O)cc2/C1=N\O`, the IC50 in series [31] was 2 to 60 nM; in series [32], 711 nM; with K562, 669 nM; in [33] it was 856 nM.
Consider `C=CC(=O)Nc1ccc(C(=O)Nc2n[nH]c3c2CN(C(=O)N[C@H](CN(C)C)c2ccccc2)C3(C)C)cc1`, for which, at CDK7/Cyclin H/MNAT1 [34], the IC50 was found to be 53 nM.
